test system: phenylephrine-precontracted vessels (thoracic aorta or femoral vein rings); assay: in vitro vascular reactivity test: relaxation of phenylephrine-precontracted aorta or vein rings; details: at 100 μM; relative to phenylephrine (0.1 μM)-induced contractile tone
Excerpt: The determination of the nitrogen monoxide-releasing properties of a compound, be it by enzymatic or non-enzymatic action, can be carried out by means of in vitro vascular reactivity tests. The in vitro vascular reactivity test measures the ability of the released nitrogen monoxide to relax a pretensioned aorta ring or vein ring which is kept in an organ chamber. […] The thoracic aorta or the femoral vein is isolated from sacrificed and exsanguinated Wistar rats and cut up to give rings 2 mm long. The vascular rings are stored in organ chambers. Changes in the development of tension after the action of compounds are recorded by an isometric signal transmitter, which is connected to a computerized detection system. The computer program analyses time curves, period and size amounts between contractions.

| SMILES | relaxation, percentage of the maximal vessel relaxation achieved with sodium nitroprusside (SNP) [%] |
| --- | --- |
| COCCCN1CCOc2ccc(CO[C@H]3CNC[C@@H](OC[C@@H](C)O[N+](=O)[O-])[C@@H]3c3ccc(COCCOC)cc3)cc21 [Example 6] | 15 |
| COCCCN1CCOc2ccc(CO[C@H]3CNC[C@@H](OC[C@H](O)CO[N+](=O)[O-])[C@@H]3c3ccc(COC[C@@H](C)COC)cc3)cc21 [Example 8, (S)-1-{(3S,4R,5R)-4-[4-((S)-3-Methoxy-2-methyl-Propoxymethyl)phenyl]-5-[4-(3-methoxypropyl)-3,4-dihydro-2H-benzo[1,4]oxazin-6-ylmethoxy]-piperidin-3-yloxy}-3-nitrooxypropan-2-ol] | 20 |
| COCCCN1CCOc2ccc(CO[C@H]3CNC[C@@H](O[N+](=O)[O-])[C@@H]3c3ccc(COC[C@@H](C)COC)cc3)cc21 [Example 9, 6-{(3R,4R,5S)-4-[4-((S)-3-Methoxy-2-methylpropoxy-methyl)phenyl]-5-nitrooxypiperidin-3-yloxy-methyl}-4-(3-methoxypropyl)-3,4-dihydro-2H-benzo-[1,4]oxazine] | 8 |
| COCCCN1CCOc2ccc(CO[C@H]3CNC[C@@H](OC[C@@H](COC)O[N+](=O)[O-])[C@@H]3c3ccc(COC[C@@H](C)COC)cc3)cc21 [Example 14] | 25 |
| COCCCN1CCOc2ccc(CO[C@H]3CNC[C@@H](CO[N+](=O)[O-])[C@@H]3c3ccc(COC[C@@H](C)COC)cc3)cc21 [Example 21, 6-{(3R,4R,5S)-4-[4-((S)-3-Methoxy-2-methyl-propoxymethyl)phenyl]-5-nitro-oxymethylpiperidin-3-yloxymethyl}-4-(3-methoxypropyl)-3,4-dihydro-2H-benzo[1,4]oxazine] | 20 |
| COCCCN1CCOc2ccc(CO[C@H]3CNC[C@@H](OC[C@H](COC)O[N+](=O)[O-])[C@@H]3c3ccc(COC[C@@H](C)COC)cc3)cc21 [Example 34, 6-[(3R,4R,5S)-4-[4-((S)-3-Methoxy-2-methylpropoxy-methyl)phenyl]-5-((S)-3-methoxy-2-nitrooxy-propoxy)piperidin-3-yloxymethyl]-4-(3-methoxy-propyl)-3,4-dihydro-2H-benzo[1,4]oxazine] | 8 |
